The text below walks through data of patent US5866570A, “Treatment of vascular leakage and related syndrome such as septic shock by administration of metalloproteinase inhibitors” (Wisconsin Alumni Research Foundation, priority 1994, dated 1999).

Series [1] deals with MDA-MB-231 cells (human breast carcinoma). In words: in vitro invasion assay through matrigel (Transwell). To be noted: preliminary screen. It counts as cell-based. The method, then:
Razoxane, various bis(hydroxylated)(2,6-dioxopiperazine)s, and various hydrophobic analogs were tested in an in vitro assay for inhibition of tumor cell penetration of a reconstituted basement membrane, matrigel, isolated from the Englegbreth-Holm-Swarm (EHS) tumor (disclosed in Kleinman et al., Biochem. (1982), 24, 6188-6193) first described by Albini et al, Cancer Res. (1987) 47, 3234-3245. An 8 μm pore filter coated with matrigel separates a lower compartment containing a chemoattractant and an upper compartment containing the cells and test compound. In particular, the following compounds were tested: razoxane, (1α, 2α, 4α, 5α)-4,4'-(4,5-dihydroxy-1,2-cyclohexanediyl)bis(2,6-piperazinedione); (1α, 2α, 4β, 5β)-4,4'-(4,5-dihydroxy-1,2-cyclohexanediyl)bis(2,6-piperazinedione);(1β, 2α,4α,5α)-4,4'-(4,5-dihydroxy-1,2-cyclohexanediyl)bis(2,6-piperazinedione); (1β, 2α, 4α,5β)-4,4'-(4,5-dihydroxy-1,2-cyclohexanediyl)bis(2,6piperazinedione); (1α, 2β, 4α,5β)-4,4'-(4,5-dihydroxy-1,2cyclohexanediyl)bis(2,6-piperazinedione); N,N'-cyclohexane-1,2-diylbis[N(2-ethoxy-2-oxoethyl)]glycine; N,N'-4-cyclohexene-1,2-diylbis[N-(2-ethoxy-2-oxoethyl)-glycine ester; (3aα, 5β, 6β, 7aα)-4,4'-(hexahydro-2,2-dimethyl1,3-benzodioxole-5,6-diyl)bis(2,6-piperazinedione); (3aα, 5α, 6α, 7aα)-4,4'-(hexahydro-2,2-dimethyl-1,3-benzodioxole-5,6-diyl)bis(2,6- piperazinedione); (3aα, 5α, 6β, 7aα)-4,4'-(hexahydro-2,2-dimethyl-1,3-benzodioxole-5,6-diyl)bis-2,6- piperazinedione; (3aα, 5β, 6α, 7aβ)-4,4'-(hexahydro-2,2dimethyl-1,3-benzodioxole-5,6-diyl)bis(2,6-piperazinedione); and (3aα, 5α, 6β, 7aβ)-4,4'-(hexahydro-2,2-dimethyl-1,3-benzodioxole-5,6-diyl) bis(2,6piperazinedione). Metastatic cells are able to degrade the basement membrane protein barrier and migrate through the pores of the filter whereas non-metastatic cells remain on the upper surface. The cells that pass to the under side of the filter are then counted under a microscope. […] Variations of this assay have been used to correlate this in vitro invasion with metastatic potential in vivo (Albini et al. (Id.); Hendrix et al. Cancer Letters (1987); 38, 127-247; Repesh L. A., Invasion Metastasis (1989) 9, 192-208 to select for more highly invasive cells (Teranova et al., Proc. Nat. Acad. Sci., (1986), 83, 465, 464; Tullberg et al., Invasion Metastasis, (1989), 9, 13-26; Sefer et al., Biotechniques, (1990), 9, 324-331), and to test compounds for inhibition (Nakajima et al., Cancer Res. (1989), 49, 1698-1756).
This method has been improved to increase the number of assays which may be performed and analyzed per day. In particular, such improvement comprises the use of disposable Transwells (Costar) units described by Repesh et al., Invasion Metastasis, (1989), 9, 192-208, which consist of an 8 μm pore filter attached to an insert that fits in a 24 well culture plate. Matrigel concentration is titrated from zero to complete inhibition of motility of each invasive cell line used in the assay and for each batch of matrigel. The matrigel concentration which yields 50% or greater inhibition of motility in a 6 hr assay (usually from 15 to 50 μg of protein per filter) is chosen for determination of invasion. Motility of cells through the 8 μm filters is not by passive diffusion since the pore size is smaller than the cells, and is determined in the same chamber in the absence of matrigel. Motility is stimulated two-fold by the presence of fibroblast conditioned medium (3T3 cells) as a chemoattractant (data not shown). The cell lines used are HT-1080, a human fibrosarcoma, and MDA-MB-231, a human breast carcinoma (both available from the American Type Tissue Culture). These cell lines express both the 72 kD and the 92 kD collagenase type IV as determined by zymography (data not shown).
For inhibition studies, 5×10^5 cells are plated in 200 μl of DMEM+0.1% BSA+the inhibitor (or appropriate solvent control) into the upper chamber of the Transwell. […]

Another series deals with S180 tumors. To be noted: cited from earlier work.
The subject of another series is mouse L cell. Particulars: l cells; read-out: ID50 inhibition of colony formation; cited from earlier work.
A further series deals with V-79A fibroblasts. To be noted: tissue culture; cited from earlier work.

Consider `CC1(C)O[C@H]2C[C@H](N3CC(=O)NC(=O)C3)[C@@H](N3CC(=O)NC(=O)C3)C[C@@H]2O1` (relative stereo) [Compound 80, (3aα, 5β, 6α, 7aβ)-4,4'-(hexahydro-2,2-dimethyl-1,3-benzodioxole-5,6-diyl)bis(2,6-piperazinedione)], for which the inhibition of invasion entry in series [1] was “inhibit invasion”. In addition, in series [1] (no matrigel), the “effect on cell motility” value is recorded as “without inhibiting cell motility”.
Regarding `CC(CN1CC(=O)NC(=O)C1)N1CC(=O)NC(=O)C1` (stereo not drawn) [razoxane], in the series with S180 tumors (5 doses at 30 mg/kg), the “inhibition of S180 tumors” value is 93%. Further, the “calculated ratio of maximum tolerated dose to the dose required for 90% inhibition of S180 tumor growth” value with S180 tumors (therapeutic index in vivo) is reported as 9.8. Moreover, the IC50 in the series with mouse L cell was 3 µM. Moreover, in the series on V-79A fibroblasts, the cytotoxic activity result is reported as “has cytoxic activity”.
